Assay results as given in patent publication US8772323B2, “Benzoxazole- and tetrahydrobenzoxazole-substituted pyridazinones as GPR119 agonists” (Boehringer Ingelheim International GmbH, priority 2010, dated 2014).

Biological target: human GPR119 (Homo sapiens (Human), UniProt Q8TDV5)
Experiment: AlphaScreen cAMP assay in Min-6/hGPR119 cells (GPR119 activation, intracellular cAMP)
Assay type: cell-based
Settings: MIN6 cells stably transfected with human GPR119; 45 minutes' incubation at RT; AlphaScreen cAMP Assay Kit
Protocol: The compounds of formula I according to the invention are GPR119 agonists. The effect of the compounds on the activation of GPR119 and on the stimulation of intracellular cAMP concentration is determined using the AlphaScreen cAMP Assay Kit (Cat. No. #6760625R) made by PerkinElmer.
MIN6 cells [Miyazaki J et al. Endocrinology. 1990 July; 127(1):126-32] were stably transfected with an expression vector for human GPR119 cDNA (Acc. No. NP_848566). Min-6/hGPR119 cells are cultured in DMEM, 10% FBS, 50 μM β-mercaptoethanol, 0.3 mg/mL Geniticin, 2 mM GlutaMAX at 37° C. 5% CO2. For the assay, the cells are placed in Optiplates (white, 384-well, 160W-barcoded, TC, sterile with lid, Cat. No. #6007688 (Perkin Elmer); 10000 cells/well; 50 μl). The plates covered with lids are then incubated for 24 hours at 37° C./5% CO2.
After the medium has been sucked out of the wells completely, 10 μl of the test compound are added, the compounds are diluted beforehand with stimulating buffer (140 mM NaCl, 3.6 mM KCl, 0.5 mM NaH2PO4, 0.5 mM MgSO4, 1.5 mM CaCl2, 10 mM Hepes, 5 mM NaHCO3; pH 7.4. 0.5 mM IBMX and 0.1% BSA, the final DMSO concentration is 1%). After 45 minutes' incubation at RT, the cAMP concentrations are determined using the AlphaScreen cAMP Assay Kit (Cat. No. #6760625R from PerkinElmer).

Sequence of human GPR119 (Q8TDV5 whole entry): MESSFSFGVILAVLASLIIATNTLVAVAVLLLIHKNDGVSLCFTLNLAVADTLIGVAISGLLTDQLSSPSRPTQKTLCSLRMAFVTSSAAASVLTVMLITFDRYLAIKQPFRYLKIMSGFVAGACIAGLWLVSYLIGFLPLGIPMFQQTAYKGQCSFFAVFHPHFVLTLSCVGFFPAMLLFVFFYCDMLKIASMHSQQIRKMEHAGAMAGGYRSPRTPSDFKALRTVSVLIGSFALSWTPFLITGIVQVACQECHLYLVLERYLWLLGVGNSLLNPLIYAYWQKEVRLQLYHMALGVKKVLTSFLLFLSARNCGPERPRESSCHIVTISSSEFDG

Compound	EC50
O=C1NN=C([C@H]2CCc3nc(-c4ccccc4)oc3C2)[C@@H]2C[C@H]12 [Example 133, (1S,6R)-5-((S)-2-phenyl-4,5,6,7-tetrahydro-benzoxazol-6-yl)-3,4-diaza-bicyclo[4.1.0]hept-4-en-2-one]	300 nM
CC[C@@H]1CC(=O)NN=C1c1ccc2nc(-c3ccc(OC4CCOCC4)cc3)oc2c1 [Example 195, (R)-5-ethyl-6-{2-[4-(tetrahydro-pyran-4-yloxy)-phenyl]-benzoxazol-6-yl}-4,5-dihydro-2H-pyridazin-3-one]	51 nM
O=c1ccc(-c2ccc3nc(-c4cccs4)oc3c2)n[nH]1 [Example 257, 6-(2-thiophen-2-yl-benzoxazol-6-yl)-2H-pyridazin-3-one]	456 nM
O=C1NN=C(c2ccc3nc(-c4cccc(F)c4)oc3c2)C2CC12 (stereo not drawn) [Example 17, 5-[2-(3-fluoro-phenyl)-benzoxazol-6-yl]-3,4-diaza-bicyclo[4.1.0]hept-4-en-2-one]	223 nM
CC1CC(=O)NN=C1c1ccc2nc(-c3ccc(Cl)cc3)oc2c1 (stereo not drawn) [Example 84, 6-[2-(4-chloro-phenyl)-benzoxazol-6-yl]-5-methyl-4,5-dihydro-2H-pyridazin-3-one]	132 nM
CCC1CC(=O)NN=C1c1ccc2nc(-c3cccc(OCCN(CC)C(C)C)c3)oc2c1 (stereo not drawn) [Example 218]	840 nM
CCC1CC(=O)NN=C1c1ccc2nc(-c3ccc(OCC(C)N4CCCC4)cc3)oc2c1 (stereo not drawn) [Example 209, 5-ethyl-6-{2-[4-(2-pyrrolidin-1-yl-propoxy)-phenyl]-benzoxazol-6-yl}-4,5-dihydro-2H-pyridazin-3-one]	311 nM
O=c1ccc(-c2ccc3nc(-c4ccccc4)oc3c2)n[nH]1 [Example 204, 6-(2-phenyl-1,3-benzoxazol-6-yl)-2,3-dihydropyridazin-3-one]	414 nM
CCC1CC(=O)NN=C1c1ccc2nc(-c3cccc(OCCN4CC(C)OC(C)C4)c3)oc2c1 (stereo not drawn) [Example 216, 6-(2-{3-[2-(2,6-dimethyl-morpholin-4-yl)-ethoxy]-phenyl}-benzoxazol-6-yl)-5-ethyl-4,5-dihydro-2H-pyridazin-3-one]	639 nM
CCC1CC(=O)NN=C1c1ccc2nc(-c3ccc(/C=C/c4ccccc4)cc3)oc2c1 (stereo not drawn) [Example 75, 5-ethyl-6-{2-[4-styryl-phenyl]-benzoxazol-6-yl}-4,5-dihydro-2H-pyridazin-3-one]	384 nM
CCC1CC(=O)NN=C1c1ccc2nc(-c3ccc(OCc4cccnc4)cc3)oc2c1 (stereo not drawn) [Example 60, 5-ethyl-6-{2-[4-(pyridin-3-ylmethoxy)-phenyl]-benzoxazol-6-yl}-4,5-dihydro-2H-pyridazin-3-one]	639 nM
COC(=O)c1cccc(-c2nc3ccc(-c4n[nH]c(=O)cc4C)cc3o2)c1 [Example 254, methyl 3-[6-(4-methyl-6-oxo-1,6-dihydro-pyridazin-3-yl)-benzoxazol-2-yl]-benzoate]	8950 nM
CCC1CC(=O)NN=C1c1ccc2nc(-c3ccc(OCCN4CCN(C(C)CC)CC4)cc3)oc2c1 (stereo not drawn) [Example 166, 6-(2-{4-[2-(4-sec-butyl-piperazin-1-yl)-ethoxy]-phenyl}-benzoxazol-6-yl)-5-ethyl-4,5-dihydro-2H-pyridazin-3-one]	621 nM
O=C1CCC(c2ccc3nc(-c4ccccc4)oc3c2)=NN1 [Example 16, 6-(2-phenyl-benzoxazol-6-yl)-4,5-dihydro-2H-pyridazin-3-one]	314 nM
CCC1OC(=O)NN=C1c1ccc2nc(-c3ccccc3)oc2c1 (stereo not drawn) [Example 78, 6-ethyl-5-(2-phenyl-benzoxazol-6-yl)-3,6-dihydro-[1,3,4]oxadiazin-2-one]	61 nM
CCC1CC(=O)NN=C1c1ccc2nc(-c3ccc(OCCN(C)C)cc3)oc2c1 (stereo not drawn) [Example 55, 6-{2-[4-(2-dimethylamino-ethoxy)-phenyl]-benzoxazol-6-yl}-5-ethyl-4,5-dihydro-2H-pyridazin-3-one]	486 nM
CCC1CC(=O)NN=C1c1ccc2nc(-c3ccc(OC)cc3F)oc2c1 (stereo not drawn) [Example 91, 5-ethyl-6-[2-(2-fluoro-4-methoxy-phenyl)-benzoxazol-6-yl]-4,5-dihydro-2H-pyridazin-3-one]	142 nM
CCC1CC(=O)NN=C1c1ccc2nc(-c3ccc(OCc4ccsc4)cc3)oc2c1 (stereo not drawn) [Example 48, 5-ethyl-6-{2-[4-(thiophen-3-ylmethoxy)-phenyl]-benzoxazol-6-yl}-4,5-dihydro-2H-pyridazin-3-one]	348 nM

Compound	EC50
CCC1CC(=O)NN=C1c1ccc2nc(-c3ccc(OCCN(CC)C(C)C)cc3)oc2c1 (stereo not drawn) [Example 215, 5-ethyl-6-(2-{4-[2-(ethyl-isopropyl-amino)-ethoxy]-phenyl}-benzoxazol-6-yl)-4,5-dihydro-2H-pyridazin-3-one]	106 nM
CCC1CC(=O)NN=C1c1ccc2nc(-c3ccc(OC[C@@H]4CCCN4C)cc3)oc2c1 (stereo partly drawn) [Example 242, 5-ethyl-6-{2-[4-(1-methyl-S-pyrrolidin-2-yl-methoxy)-phenyl]-benzoxazol-6-yl}-4,5-dihydro-2H-pyridazin-3-one]	296 nM
Cc1ccc(-c2nc3ccc(C4=NNC(=O)C5CC45)cc3o2)cc1 (stereo not drawn) [Example 13, 5-(2-p-tolyl-benzoxazol-6-yl)-3,4-diaza-bicyclo[4.1.0]hept-4-en-2-one]	153 nM
CC[C@@H]1CC(=O)NN=C1c1ccc2nc(-c3ccc(OC(C)C)cc3)oc2c1 [Example 193, (R)-5-ethyl-6-[2-(4-isopropoxy-phenyl)-benzoxazol-6-yl]-4,5-dihydro-2H-pyridazin-3-one]	30 nM
CCC[C@H]1C(=O)NN=C(c2ccc3nc(-c4ccc(C)s4)oc3c2)[C@@H]1C (relative stereo) [Example 184, trans-5-methyl-6-[2-(5-methyl-thiophen-2-yl)-benzoxazol-6-yl]-4-propyl-4,5-dihydro-2H-pyridazin-3-one]	53 nM
CCC1CC(=O)NN=C1c1ccc2nc(-c3ccc(OCCN(C(C)C)C(C)C)cc3)oc2c1 (stereo not drawn) [Example 57, 6-{2-[4-(2-diisopropylamino-ethoxy)-phenyl]-benzoxazol-6-yl}-5-ethyl-4,5-dihydro-2H-pyridazin-3-one]	37 nM
C[C@@H]1CC(=O)NN=C1c1ccc2nc(-c3ccccc3)oc2c1 [Example 3, (R)-5-methyl-6-(2-phenyl-benzoxazol-6-yl)-4,5-dihydro-2H-pyridazin-3-one]	82 nM
CCC[C@@H]1C(=O)NN=C(c2ccc3nc(-c4ccccc4)oc3c2)[C@H]1C (relative stereo) [Example 128, trans-5-methyl-6-(2-phenyl-benzoxazol-6-yl)-4-propyl-4,5-dihydro-2H-pyridazin-3-one]	56 nM
CCC[C@H]1C(=O)NN=C(c2ccc3nc(-c4ccsc4)oc3c2)[C@@H]1C (relative stereo) [Example 187, trans-5-methyl-4-propyl-6-(2-thiophen-3-yl-benzoxazol-6-yl)-4,5-dihydro-2H-pyridazin-3-one]	173 nM
CC1CC(=O)NN=C1c1ccc2nc(-c3cccc(OCC4CCN(C(=O)OC(C)(C)C)CC4)c3)oc2c1 (stereo not drawn) [Example 69, tert-butyl 4-{3-[6-(4-methyl-6-oxo-1,4,5,6-tetrahydro-pyridazin-3-yl)-benzoxazol-2-yl]-phenoxymethyl}-piperidin-1-carboxylate]	143 nM
CCC1CC(=O)NN=C1c1ccc2nc(-c3ccc(OCC(=O)OC(C)(C)C)cc3)oc2c1 (stereo not drawn) [Example 66, tert-butyl {4-[6-(4-ethyl-6-oxo-1,4,5,6-tetrahydro-pyridazin-3-yl)-benzoxazol-2-yl]-phenoxy}-acetate]	112 nM
CCC1CC(=O)NN=C1c1ccc2nc(-c3ccc(OC)c(OC)c3)oc2c1 (stereo not drawn) [Example 92, 6-[2-(3,4-dimethoxy-phenyl)-benzoxazol-6-yl]-5-ethyl-4,5-dihydro-2H-pyridazin-3-one]	460 nM
CCCC[C@@H]1C(=O)NN=C(c2ccc3nc(-c4ccccc4)oc3c2)[C@H]1C (relative stereo) [Example 197, trans-4-butyl-5-methyl-6-(2-phenyl-benzoxazol-6-yl)-4,5-dihydro-2H-pyridazin-3-one]	1110 nM
CCC1CC(=O)NN=C1c1ccc2nc(-c3ccccc3)oc2c1 (stereo not drawn) [Example 29, 5-ethyl-6-(2-phenyl-benzoxazol-6-yl)-4,5-dihydro-2H-pyridazin-3-one]	181 nM
CC1NC(=O)NN=C1c1ccc2nc(-c3ccccc3)oc2c1 (stereo not drawn) [Example 142, 5-methyl-6-(2-phenyl-benzoxazol-6-yl)-4,5-dihydro-2H-[1,2,4]triazin-3-one]	539 nM
O=C1NN=C(N2CCc3nc(-c4ccccc4)oc3C2)C2CC12 (stereo not drawn) [Example 135, 5-(2-phenyl-4,5,6,7-tetrahydro-4H-oxazolo[5,4-c]pyridin-5-yl)-3,4-diaza-bicyclo[4.1.0]hept-4-en-2-one]	391 nM
CCC1CC(=O)NN=C1c1ccc2nc(-c3ccc(OCc4cncn4C)cc3)oc2c1 (stereo not drawn) [Example 42, 5-ethyl-6-{2-[4-(3-methyl-3H-imidazol-4-ylmethoxy)-phenyl]-benzoxazol-6-yl}-4,5-dihydro-2H-pyridazin-3-one]	4180 nM
O=C1NN=C(c2ccc3nc(-c4ccccc4F)oc3c2)C2CC12 (stereo not drawn) [Example 20, 5-[2-(2-fluoro-phenyl)-benzoxazol-6-yl]-3,4-diaza-bicyclo[4.1.0]hept-4-en-2-one]	157 nM
